The source of these data is PMC4882237 (Journal of medicinal chemistry, 2016).

Series [1] in a line: Metabolic stability in human liver microsomes. The class given is in vitro ADME.
The next series relates to Caco-2. In words: Caco-2 permeability. The class given is in vitro ADME. To be noted: result in words.
The next series relates to cytochromes P450 (CYPs). In words: Inhibition of human cytochromes P450, overall. The settings on record: result in words.

The structures appear in SMILES notation. “Also recorded” adds a separate entry of the source.

Turning to `CNCCCc1cncc(CCc2cc(C)cc(N)n2)c1` [Compound 14j, 4-Methyl-6-(2-(5-(3-(methylamino)propyl)pyridin-3-yl)ethyl)pyridin-2-amine], the “half-life in human liver microsomes” value in series [1] (1 μM concentration) is over 1 h. The “human microsome CYP metabolism” value in series [1] (for at least 60 min, result in words) is listed as “little or no”. Besides, in series [1] (result in words), the “metabolic stability in human liver microsomes” value is recorded as “good”. The Caco-2 permeability entry in the series on Caco-2 is on record as “little to no; also recorded: little or no”. For the same molecule, the “binding to / inhibition of cytochromes P450 (CYPs)” value in the series on cytochromes P450 (CYPs) is on record as “minimal; also recorded: very poor”.
